Laboratory results as given in patent publication US5620955A, “Bombesin receptor antagonists and uses thereof” (Peptide Technologies Corporation, priority 1993, dated 1997).
Where two headings read alike, the source gives them in different places. Positions of bridges follow the written chain, without caps; N, C: chain ends. Non-standard residues stand in square brackets, D forms with d. Residues, ends and D or L forms follow the SMILES beside them. *: point of attachment. Chlorambucil = O=C(CCCc1ccc(N(CCCl)CCCl)cc1)*; NH(4-Br-phenethyl) = Brc1ccc(CCN*)cc1; X1 = O=C(CCCc1ccc(N(CCO)CCCl)cc1)*; 1Naphthoyl = O=C(c1cccc2ccccc12)*; Bz = O=C(c1ccccc1)*; NHPr = CCCN*

Key:
BBN receptor [1] = molecular target: T1, BBN receptor (Homo sapiens, UniProt P30550); assay: Cytosolic Ca++ assay in SCLC cell line NCI-H345; type: cell-based; parameters: key: antagonized (A); had no effect (--) on the ability of 10 nM BBN to; settings: compound 10 μM; 10 nM BBN elevation of cytosolic Ca++
T1 construct: endogenous in cells; host or cells: NCI-H345 (human SCLC)
Experimental: SCLC cell line NCI-H345 was cultured for two days in medium containing 10^-8 M hydrocortisone, 5 μg/ml bovine insulin, 10 μg/ml human transferrin, 10^-8 M β-estradiol and 3×10^-8 M Na2 SeO3. The cells were harvested and washed, resuspended in medium containing 20 mM HEPES, pH 7.4, and loaded with 5 μM Fura 2 AM (Calbiochem) for 30 minutes. The cells were centrifuged at 150×g for 10 minutes to remove extracellular dye and resuspended and placed in a spectrofluorometer cell equipped with stirring and 37° C. heating. The emission was read at 510 nm with 340 excitation (Moody et al., Biochem. Biophys. Res. Commun. 147:189 (1987)). The response of compounds at 5 μM was measured initially as a screen and compared to that of 10 nM BBN. The response of varying concentrations of peptide (nM to μM) in the presence of 10 nM BBN was determined.

NCI-H345 = assay: Clonagenic assay, colony formation of NCI-H345; type: cell-based, human; parameters: key to Growth: significantly reduced (R); had no effect (--) on th; settings: compound 1 μM; clonal growth of a human tumor cell line
Experimental: The effect of 1 to 1000 nM concentration of peptides on growth of NCI-H345 colonies stimulated by 10 nM BBN was measured in the agarose cloning system (Mahoud et al., Cancer Res. 51:1798 (1991); Staley et al., Peptides 12:145-149 (1991)). […] On the day of the assay, cells were harvested, centrifuged and suspended in the buffer. The agarose cloning system consisted of 3 ml of 0.5% agarose in SIT medium with 5% fetal bovine serum in six well plates. To a top layer, consisting of 3 ml HITES medium in 0.3% agarose, the peptides at two times concentration and 6×10^4 single viable cells, were added. For each peptide concentration, triplicate wells were plated. After two weeks, 1 ml of 0.1% p-iodo-nitrotetrazolium violet was added, and after 16 hours at 37° C., the plates were screened for colony formation; the number of colonies larger than […] in diameter were counted using a Bausch and Lomb Omnicon image analysis system.

BBN receptor [2] = molecular target: T1, BBN receptor; assay: Inhibition of [125I]Tyr4-BBN binding to SCLC NCI-H345 membranes; settings: for inhibition of BBN binding to SCLC membranes (in words): radiolabelled Tyr4-BBN
Experimental: (§1) Acinar cells from rat pancreas bind BBN and secrete amylase when treated with BBN. The ability of potential antagonists to bind to rat pancreatic acinar cells was examined by determining the ability of the compounds to inhibit the binding of radiolabelled BBN. […] Finally, antagonist activity of the compounds was determined by measuring the ability of compounds to prevent the release of amylase from cells in response to BBN. […] This cell line was also used to evaluate biological activities of potential antagonists derived from the structures of BBN and GRP. The binding of synthetic compounds to cellular membranes prepared from NCI-H345 was determined. The ability of potential antagonists to block the BBN-stimulated increase in cytosolic levels of Ca^++ was determined. Compounds showing inhibition were further tested to determine the effect on growth of two human SCLC cell lines in culture.
Potential antagonists were also evaluated for their ability to inhibit the binding of radiolabelled Tyr^4 -BBN to SCLC membranes and for their effects on BBN signal transduction in SCLC cells.

BBN receptor [3] = molecular target: T2, BBN receptor (Rattus norvegicus, UniProt P52500); assay: Inhibition of 125I bombesin binding to rat pancreatic acinar cells; settings: inhibition of 125I bombesin binding; IC50 divided by radioligand concentration
Experimental: Inhibition of equilibrium binding of ^125 I labeled bombesin to acinar membranes by the compounds was determined. The Kd was determined by dividing IC50 (the concentration of synthetic compound required to inhibit 50% of the specific binding of labelled BBN) by the concentration of radiolabeled peptide.

BBN receptor [4] = molecular target: T2, BBN receptor; assay: Stimulation of amylase release from rat pancreatic acinar cells by the compound alone (agonist test); type: cell-based
BBN receptor [5] = molecular target: T2, BBN receptor; assay: Inhibition of bombesin-stimulated amylase release from rat pancreatic acini; type: cell-based; settings: half-maximal inhibition of bombesin-stimulated amylase release from acini; mean ± s.e.m.
Experimental: as §1
The incubation solution contained 1% albumin and the wash solution contained 0.2% albumin. The solution was equilibrated with 100% O2. Dispersed acini were suspended in 20 ml of solution. Samples of 1 ml were incubated in the presence of various concentrations of compounds in the presence of 1 nM bombesin. After the first incubation the samples were washed 4 times with wash solution at 4° C. The acini were then resuspended in fresh incubation buffer and incubated at 37° C. Amylase release was measured by the Phadebas reagent. Amylase secretion during a given incubation was expressed as the percentage of amylase present in the acini at the beginning of that incubation that was released into the extracellular medium.

BBN receptor [6] = molecular target: T2, BBN receptor; type: cell-based; settings: PTC 821 1 μM
Experimental: (§2) Dispersed acinar cells from rat pancreas were prepared as indicated above.

CCK Receptor = molecular target: T3, CCK Receptor (Rattus norvegicus, UniProt P30551); assay: Specificity test, CCK-stimulated amylase secretion of rat pancreatic acinar cells after wash; settings: PTC 821 1 μM
T3 sequence (P30551 1-444): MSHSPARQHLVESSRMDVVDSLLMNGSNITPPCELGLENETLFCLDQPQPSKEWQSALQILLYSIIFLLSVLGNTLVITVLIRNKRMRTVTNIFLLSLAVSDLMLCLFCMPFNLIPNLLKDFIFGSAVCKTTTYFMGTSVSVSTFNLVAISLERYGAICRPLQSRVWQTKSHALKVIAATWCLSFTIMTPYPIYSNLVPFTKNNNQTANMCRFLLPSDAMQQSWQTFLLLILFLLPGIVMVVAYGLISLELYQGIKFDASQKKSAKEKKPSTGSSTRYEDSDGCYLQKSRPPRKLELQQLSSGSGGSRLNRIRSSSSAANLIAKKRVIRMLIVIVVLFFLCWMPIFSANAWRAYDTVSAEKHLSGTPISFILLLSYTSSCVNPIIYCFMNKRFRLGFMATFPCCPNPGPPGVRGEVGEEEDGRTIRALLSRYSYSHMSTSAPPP
Experimental: as §2

[7] = 50% inhibition of specific [125I]Tyr4-BBN binding, NCI-H345, read-out: IC50

T1 sequence (P30550 whole entry): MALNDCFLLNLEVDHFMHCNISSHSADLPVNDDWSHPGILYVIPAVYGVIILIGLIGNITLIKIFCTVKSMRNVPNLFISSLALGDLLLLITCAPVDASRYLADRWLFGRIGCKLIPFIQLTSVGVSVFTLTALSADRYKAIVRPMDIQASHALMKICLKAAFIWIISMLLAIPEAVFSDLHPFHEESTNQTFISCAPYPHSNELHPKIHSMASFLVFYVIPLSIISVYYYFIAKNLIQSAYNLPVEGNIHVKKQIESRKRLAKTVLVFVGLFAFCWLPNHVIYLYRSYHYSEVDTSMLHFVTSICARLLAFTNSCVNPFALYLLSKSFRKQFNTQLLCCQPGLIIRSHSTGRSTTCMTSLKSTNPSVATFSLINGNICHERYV
T2 sequence (P52500 whole entry): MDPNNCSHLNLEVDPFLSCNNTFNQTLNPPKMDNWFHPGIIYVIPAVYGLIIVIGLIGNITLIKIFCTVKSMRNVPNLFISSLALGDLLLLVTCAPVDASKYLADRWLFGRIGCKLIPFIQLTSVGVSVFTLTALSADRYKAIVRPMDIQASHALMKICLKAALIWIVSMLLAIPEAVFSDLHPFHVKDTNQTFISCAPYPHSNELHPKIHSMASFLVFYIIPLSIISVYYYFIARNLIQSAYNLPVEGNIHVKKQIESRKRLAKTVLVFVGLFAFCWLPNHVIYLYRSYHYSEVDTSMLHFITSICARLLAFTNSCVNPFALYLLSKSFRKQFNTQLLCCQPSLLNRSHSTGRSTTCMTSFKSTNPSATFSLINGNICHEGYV

Compound | Ca++ effect (BBN receptor [1]) | IC50 (BBN receptor [2]; [7]) | Kd (BBN receptor [3]) | EC50 (BBN receptor [4]) | IC50 (BBN receptor [5]) | IC50 (BBN receptor [2]) | other results
CCCNC(=O)[C@H]1CCC(=O)NCCCC[C@H](NC(C)=O)C(=O)N[C@@H](Cc2c[nH]c3ccccc23)C(=O)N[C@@H](C)C(=O)N[C@@H](C(C)C)C(=O)N[C@H](C)C(=O)N[C@@H](Cc2c[nH]cn2)C(=O)N1 [PCT 812] (Ac-KWAV[dA]H[dE]-NHPr; lactam 1-7) | A | 4 µM |  |  |  |  | Growth (NCI-H345): R; inhibition of BBN binding to SCLC membranes (in words) (BBN receptor [2]): only weak inhibition of BBN binding
CC(=O)N[C@H]1CCCCNC(=O)[C@H](CC(C)C)NC(=O)[C@H](Cc2c[nH]cn2)NC(=O)[C@H](C)NC(=O)[C@H](C(C)C)NC(=O)[C@H](C)NC(=O)[C@H](Cc2c[nH]c3ccccc23)NC(=O)[C@H](CCC(N)=O)NC(=O)[C@H](CC(N)=O)NC1=O [PTC 803] (Ac-KNQWAVAHL; lactam 1-C) | -- | > 10 µM | > 3 µM | > 3 µM | > 3 µM |  | 
CC(=O)N[C@@H]1CCCCNC(=O)[C@H](CC(C)C)NC(=O)[C@H](Cc2c[nH]cn2)NC(=O)[C@@H](C)NC(=O)[C@H](C(C)C)NC(=O)[C@H](C)NC(=O)[C@H](Cc2c[nH]c3ccccc23)NC(=O)[C@H](CCC(N)=O)NC(=O)[C@H](CC(N)=O)NC1=O [PTC 804] (Ac-[dK]NQWAV[dA]HL; lactam 1-C) | -- | 6 µM | > 3 µM | > 3 µM | > 3 µM |  | inhibition of BBN binding to SCLC membranes (in words) (BBN receptor [2]): only weak inhibition of BBN binding
CC(=O)N[C@@H]1CCCCNC(=O)[C@H](CC(C)C)NC(=O)[C@H](Cc2c[nH]cn2)NC(=O)[C@H](C)NC(=O)[C@H](C(C)C)NC(=O)[C@H](C)NC(=O)[C@H](Cc2c[nH]c3ccccc23)NC(=O)[C@H](CCC(N)=O)NC(=O)[C@H](CC(N)=O)NC1=O [PTC 805] (Ac-[dK]NQWAVAHL; lactam 1-C) | -- | > 10 µM | > 3 µM | > 3 µM | > 3 µM |  | 
CC(=O)N[C@H]1CCCCNC(=O)[C@H](CC(C)C)NC(=O)[C@H](Cc2c[nH]cn2)NC(=O)[C@@H](C)NC(=O)[C@H](C(C)C)NC(=O)[C@H](C)NC(=O)[C@H](Cc2c[nH]c3ccccc23)NC(=O)[C@H](CCC(N)=O)NC(=O)[C@H](CC(N)=O)NC1=O [PTC 806] (Ac-KNQWAV[dA]HL; lactam 1-C) |  |  | > 3 µM | > 3 µM | > 3 µM |  | 
CC(C)C[C@@H]1NC(=O)[C@H](Cc2c[nH]cn2)NC(=O)[C@@H](C)NC(=O)[C@H](C(C)C)NC(=O)[C@H](C)NC(=O)[C@H](Cc2c[nH]c3ccccc23)NC(=O)[C@H](CCC(N)=O)NC(=O)[C@H](CC(N)=O)NC(=O)[C@H](NC(=O)c2ccccc2)CCCCNC1=O [PTC 807] (Bz-[dK]NQWAV[dA]HL; lactam 1-C) | -- |  |  |  |  |  | 
CC(C)C[C@@H]1NC(=O)[C@H](Cc2c[nH]cn2)NC(=O)[C@@H](C)NC(=O)[C@H](C(C)C)NC(=O)[C@H](C)NC(=O)[C@H](Cc2c[nH]c3ccccc23)NC(=O)[C@H](CCC(N)=O)NC(=O)[C@H](CC(N)=O)NC(=O)[C@H](NC(=O)c2cccc3ccccc23)CCCCNC1=O [PTC 808] (1Naphthoyl-[dK]NQWAV[dA]HL; lactam 1-C) | -- |  |  |  |  |  | 
CC(C)C[C@@H]1NC(=O)[C@H](Cc2c[nH]cn2)NC(=O)[C@@H](C)NC(=O)[C@H](C(C)C)NC(=O)[C@H](C)NC(=O)[C@H](Cc2c[nH]c3ccccc23)NC(=O)[C@H](CCC(N)=O)NC(=O)[C@H](CC(N)=O)NC(=O)[C@H](Nc2ccc([N+](=O)[O-])cc2[N+](=O)[O-])CCCCNC1=O [PTC 809] | -- | > 10 µM | > 3 µM | > 3 µM | > 3 µM |  | 
CCOC(=O)[C@H](CC(C)C)NC(=O)[C@H](Cc1c[nH]cn1)NC(=O)[C@@H](C)NC(=O)[C@@H](NC(=O)[C@H](C)NC(=O)[C@H](Cc1c[nH]c2ccccc12)NC(=O)[C@H](CCC(N)=O)NC(=O)[C@H](CC(N)=O)NC(=O)CCCc1ccc(N(CCO)CCCl)cc1)C(C)C [PTC 815B] (X1-NQWAV[dA]HL-OEt) |  |  |  |  |  | 0.045 µM | 
CCOC(=O)[C@H](CC(C)C)NC(=O)[C@H](Cc1c[nH]cn1)NC(=O)[C@@H](C)NC(=O)[C@@H](NC(=O)[C@H](C)NC(=O)[C@H](Cc1c[nH]c2ccccc12)NC(=O)[C@H](CCC(N)=O)NC(=O)[C@H](CC(N)=O)NC(=O)CCCc1ccc(N(CCCl)CCCl)cc1)C(C)C [PTC 815] (Chlorambucil-NQWAV[dA]HL-OEt) |  |  | 0.0107 ± 0.0034 µM | > 3 µM | 0.0085 ± 0.0005 µM | 0.035 µM | 
CC(=O)N[C@@H](Cc1c[nH]cn1)C(=O)N[C@@H](Cc1c[nH]c2ccccc12)C(=O)N[C@@H](C)C(=O)N[C@H](C(=O)N[C@H](C)C(=O)N[C@@H](Cc1c[nH]cn1)C(=O)NCCc1ccc(Br)cc1)C(C)C [PTC 820] (Ac-HWAV[dA]H-{NH(4-Br-phenethyl)}) | -- |  | > 3 µM | > 3 µM | > 3 µM | > 10 µM | Growth (NCI-H345): --
CCOC(=O)[C@H](CC(C)C)NC(=O)[C@H](Cc1c[nH]cn1)NC(=O)[C@@H](C)NC(=O)[C@@H](NC(=O)[C@H](C)NC(=O)[C@H](Cc1c[nH]c2ccccc12)NC(=O)[C@H](Cc1c[nH]cn1)NC(=O)CCCc1ccc(N(CCCl)CCCl)cc1)C(C)C [PTC 821] (Chlorambucil-HWAV[dA]HL-OEt) |  |  | 0.0032 ± 0.0005 µM | > 3 µM | 0.0063 ± 0.0009 µM | 0.008 µM | Percent BBN Receptor Activity Recovered (BBN receptor [6]; 1 Min post-wash): 5%; Percent BBN Receptor Activity Recovered (BBN receptor [6]; 30 Min post-wash): 18%; Percent BBN Receptor Activity Recovered (BBN receptor [6]; 60 Min post-wash): 25%; changes in the appearance of the cells indicative of toxicity (BBN receptor [6]; rat pancreatic acinar cells): no changes in the appearance of the cells; Percent CCK Receptor Activity Recovered (CCK Receptor; 1 Min post-wash): 107%; Percent CCK Receptor Activity Recovered (CCK Receptor; 30 Min post-wash): 115%; Percent CCK Receptor Activity Recovered (CCK Receptor; 60 Min post-wash): 89%
